Measurements taken from patent US11807835B2, “Detergent compositions containing a stabilized enzyme by phosphonates” (ECOLAB USA INC., priority 2016, dated 2023).

Legend:
Type in all cases: biochemical
amylase = assay: Amylase activity retention in detergent use solution (4000 ppm, 5 GPG water; ethylidene substrate EPS, HEPES buffer pH 8.0); conditions: base formula
Outline: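 Detergent use solution at 4000 ppm in 5 GPG water held at 120° F.; aliquots taken up to 4 h, flash-frozen, then assayed with p-nitrophenyl valerate in TRIS pH 8.0 (lipase) or EPS substrate in HEPES pH 8.0 (amylase). Retention given as % activity relative to t=0.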

lipase = assay: Lipase activity retention in detergent use solution (4000 ppm, 5 GPG water; p-nitrophenyl valerate, TRIS buffer pH 8.0); conditions: base formula
Outline: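 Lipase stability was measured in a detergent use solution under conditions mimicking presoak or manual warewash, with stirring in a water bath. Aliquots were taken over time and flash-frozen. Thawed samples were diluted in TRIS buffer at pH 8.0 and assayed with p-nitrophenyl valerate as substrate on a plate reader. Activity is reported as % retained relative to the time=0 sample.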

[1] = tested on: enzyme (protease, amylase, lipase); assay: Overall effects of phosphonates on enzyme activity (Table 3); conditions: overall effect of the phosphonate on enzyme activity in the detergent use solution
Outline: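 Protease, amylase and lipase activity in detergent use solutions with varied phosphonate levels, 4000 ppm in 5 GPG water at 120° F., sampled up to 4 h and frozen at −80° C. before assay. Activity given as % retention relative to t=0 (100%).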

[2] = phosphonate 0.3 wt-%, use solution at 120° F., time 0 min
[3] = phosphonate 0.3 wt-%, use solution at 120° F., time 5 min
[4] = phosphonate 0.3 wt-%, use solution at 120° F., time 10 min
[5] = phosphonate 0.3 wt-%, use solution at 120° F., time 20 min
[6] = phosphonate 0.3 wt-%, use solution at 120° F., time 40 min
[7] = phosphonate 0.3 wt-%, use solution at 120° F., time 60 min
[8] = phosphonate 0.3 wt-%, use solution at 120° F., time 90 min
[9] = phosphonate 0.3 wt-%, use solution at 120° F., time 120 min
[10] = phosphonate 0.3 wt-%, use solution at 120° F., time 150 min
[11] = phosphonate 0.3 wt-%, use solution at 120° F., time 180 min
[12] = phosphonate 0.3 wt-%, use solution at 120° F., time 210 min
[13] = phosphonate 0.3 wt-%, use solution at 120° F., time 240 min
[14] = phosphonate 0.6 wt-%, use solution at 120º F., time 0 min
[15] = phosphonate 0.6 wt-%, use solution at 120º F., time 5 min
[16] = phosphonate 0.6 wt-%, use solution at 120º F., time 10 min
[17] = phosphonate 0.6 wt-%, use solution at 120º F., time 20 min
[18] = phosphonate 0.6 wt-%, use solution at 120º F., time 40 min
[19] = phosphonate 0.6 wt-%, use solution at 120º F., time 60 min
[20] = phosphonate 0.6 wt-%, use solution at 120º F., time 90 min
[21] = phosphonate 0.6 wt-%, use solution at 120º F., time 120 min
[22] = phosphonate 0.6 wt-%, use solution at 120º F., time 150 min
[23] = phosphonate 0.6 wt-%, use solution at 120º F., time 180 min
[24] = phosphonate 0.6 wt-%, use solution at 120º F., time 210 min
[25] = phosphonate 0.6 wt-%, use solution at 120º F., time 240 min

Polyamino Polyether Methylene Phosphonic Acid [PAPEMP]
Relative Amylase Enzyme Activity (amylase; [2]): 45.92%
Relative Amylase Enzyme Activity (amylase; [3]): 100.00%
Relative Amylase Enzyme Activity (amylase; [4]): 101.33%
Relative Amylase Enzyme Activity (amylase; [5]): 101.28%
Relative Amylase Enzyme Activity (amylase; [6]): 89.91%
Relative Amylase Enzyme Activity (amylase; [7]): 93.07%
Relative Amylase Enzyme Activity (amylase; [8]): 89.58%
Relative Amylase Enzyme Activity (amylase; [9]): 89.74%
Relative Amylase Enzyme Activity (amylase; [10]): 92.85%
Relative Amylase Enzyme Activity (amylase; [11]): 87.45%
Relative Amylase Enzyme Activity (amylase; [12]): 93.95%
Relative Amylase Enzyme Activity (amylase; [13]): 108.16%
Relative Amylase Enzyme Activity (amylase; [14]): 100.00%
Relative Amylase Enzyme Activity (amylase; [15]): 91.71%
Relative Amylase Enzyme Activity (amylase; [16]): 99.05%
Relative Amylase Enzyme Activity (amylase; [17]): 94.55%
Relative Amylase Enzyme Activity (amylase; [18]): 97.22%
Relative Amylase Enzyme Activity (amylase; [19]): 97.94%
Relative Amylase Enzyme Activity (amylase; [20]): 101.28%
Relative Amylase Enzyme Activity (amylase; [21]): 99.25%
Relative Amylase Enzyme Activity (amylase; [22]): 105.34%
Relative Amylase Enzyme Activity (amylase; [23]): 98.44%
Relative Amylase Enzyme Activity (amylase; [24]): 101.64%
Relative Amylase Enzyme Activity (amylase; [25]): 96.02%
Relative Amylase Enzyme Activity (amylase; phosphonate at 0.1% elemental phosphorus level, use solution at 120º F., time 0 min): 100.00%
Relative Amylase Enzyme Activity (amylase; phosphonate at 0.1% elemental phosphorus level, use solution at 120º F., time 5 min): 85.10%
Relative Amylase Enzyme Activity (amylase; phosphonate at 0.1% elemental phosphorus level, use solution at 120º F., time 10 min): 95.50%
Relative Amylase Enzyme Activity (amylase; phosphonate at 0.1% elemental phosphorus level, use solution at 120º F., time 20 min): 96.02%
Relative Amylase Enzyme Activity (amylase; phosphonate at 0.1% elemental phosphorus level, use solution at 120º F., time 40 min): 91.46%
Relative Amylase Enzyme Activity (amylase; phosphonate at 0.1% elemental phosphorus level, use solution at 120º F., time 60 min): 97.42%
Relative Amylase Enzyme Activity (amylase; phosphonate at 0.1% elemental phosphorus level, use solution at 120º F., time 90 min): 89.60%
Relative Amylase Enzyme Activity (amylase; phosphonate at 0.1% elemental phosphorus level, use solution at 120º F., time 120 min): 99.26%
Relative Amylase Enzyme Activity (amylase; phosphonate at 0.1% elemental phosphorus level, use solution at 120º F., time 150 min): 101.88%
Relative Amylase Enzyme Activity (amylase; phosphonate at 0.1% elemental phosphorus level, use solution at 120º F., time 180 min): 91.85%
Relative Amylase Enzyme Activity (amylase; phosphonate at 0.1% elemental phosphorus level, use solution at 120º F., time 210 min): 99.00%
Relative Amylase Enzyme Activity (amylase; phosphonate at 0.1% elemental phosphorus level, use solution at 120º F., time 240 min): 96.59%
Relative Lipase Enzyme Activity (lipase; [2]): 49.99%
Relative Lipase Enzyme Activity (lipase; [3]): 100.00%
Relative Lipase Enzyme Activity (lipase; [4]): 92.85%
Relative Lipase Enzyme Activity (lipase; [5]): 77.81%
Relative Lipase Enzyme Activity (lipase; [6]): 54.24%
Relative Lipase Enzyme Activity (lipase; [7]): 51.08%
Relative Lipase Enzyme Activity (lipase; [8]): 45.80%
Relative Lipase Enzyme Activity (lipase; [9]): 36.29%
Relative Lipase Enzyme Activity (lipase; [10]): 33.14%
Relative Lipase Enzyme Activity (lipase; [11]): 28.25%
Relative Lipase Enzyme Activity (lipase; [12]): 26.56%
Relative Lipase Enzyme Activity (lipase; [13]): 24.03%
Relative Lipase Enzyme Activity (lipase; [14]): 100.00%
Relative Lipase Enzyme Activity (lipase; [15]): 86.04%
Relative Lipase Enzyme Activity (lipase; [16]): 83.42%
Relative Lipase Enzyme Activity (lipase; [17]): 73.22%
Relative Lipase Enzyme Activity (lipase; [18]): 64.86%
Relative Lipase Enzyme Activity (lipase; [19]): 59.26%
Relative Lipase Enzyme Activity (lipase; [20]): 47.33%
Relative Lipase Enzyme Activity (lipase; [21]): 42.05%
Relative Lipase Enzyme Activity (lipase; [22]): 38.58%
Relative Lipase Enzyme Activity (lipase; [23]): 29.04%
Relative Lipase Enzyme Activity (lipase; [24]): 31.37%
Relative Lipase Enzyme Activity (lipase; [25]): 29.77%
Relative Lipase Enzyme Activity (lipase; phosphonate at 0.1% elemental phosphorus, at 120º F. or at room temperature (as titled), time 0 min): 100.00%
Relative Lipase Enzyme Activity (lipase; phosphonate at 0.1% elemental phosphorus, at 120º F. or at room temperature (as titled), time 5 min): 91.09%
Relative Lipase Enzyme Activity (lipase; phosphonate at 0.1% elemental phosphorus, at 120º F. or at room temperature (as titled), time 10 min): 83.66%
Relative Lipase Enzyme Activity (lipase; phosphonate at 0.1% elemental phosphorus, at 120º F. or at room temperature (as titled), time 20 min): 75.51%
Relative Lipase Enzyme Activity (lipase; phosphonate at 0.1% elemental phosphorus, at 120º F. or at room temperature (as titled), time 40 min): 58.49%
Relative Lipase Enzyme Activity (lipase; phosphonate at 0.1% elemental phosphorus, at 120º F. or at room temperature (as titled), time 60 min): 54.87%
Relative Lipase Enzyme Activity (lipase; phosphonate at 0.1% elemental phosphorus, at 120º F. or at room temperature (as titled), time 90 min): 48.29%
Relative Lipase Enzyme Activity (lipase; phosphonate at 0.1% elemental phosphorus, at 120º F. or at room temperature (as titled), time 120 min): 42.46%
Relative Lipase Enzyme Activity (lipase; phosphonate at 0.1% elemental phosphorus, at 120º F. or at room temperature (as titled), time 150 min): 38.07%
Relative Lipase Enzyme Activity (lipase; phosphonate at 0.1% elemental phosphorus, at 120º F. or at room temperature (as titled), time 180 min): 33.57%
Relative Lipase Enzyme Activity (lipase; phosphonate at 0.1% elemental phosphorus, at 120º F. or at room temperature (as titled), time 210 min): 31.15%
Relative Lipase Enzyme Activity (lipase; phosphonate at 0.1% elemental phosphorus, at 120º F. or at room temperature (as titled), time 240 min): 31.01%
Stability (effects on enzyme activity) [1]: Yes
